Legend:
urea transporter (UT) = conditions: previously available UT inhibitors; cited from earlier work
RBCs from wild-type mice = experiment: Osmotic water permeability by stopped-flow light scattering, RBCs from wild-type mice; assay type: cell-based, mouse
Experimental: RBC urea and water permeabilities were assayed by stopped-flow light scattering using a Hi-Tech Sf-51 instrument (Wiltshire, UK). For measurement of urea permeability, dilutions of whole blood (human or mouse; see Example 1) in PBS (hematocrit: approximately 0.5%) were incubated with test compounds for 5 min and then subjected to a 250-mM inwardly directed gradient of urea. After an initial osmotic shrinking phase, the kinetics of increasing cell volume caused by urea influx were measured as the time-course of 90° scattered light intensity at 530 nm, with increasing cell volume resulting in reduced scattered light intensity. As a positive control, 0.7 mM phloretin was added to the RBC suspension prior to stopped-flow experiments. Measurements of water permeability were carried out similarly, with sucrose (cell-impermeant) used instead of urea to establish a 250-mM osmotic gradient. As a positive control, HgCl2 (0.3 mM) was added to the RBC suspension prior to stopped-flow measurements. Osmotic water permeability coefficients (Pf) were computed from light scattering data as described (van Hoek et al., J. Biol. Chem. 267:18267-69 (1992)).
This example describes chemical knock-out of UT-B by UT-B inhibitors in RBCs and the effect on UT-B-facilitated water transport. […] Osmotic water permeability was measured by stopped-flow light scattering in RBCs from wild-type and AQP1-null mice as shown in FIG. 8A. […] AQP1-null RBCs had greater than 5-fold reduced Pf compared to wild-type RBCs.

rat UT-A1 = molecular target: T1, rat UT-A1 (Rattus norvegicus, UniProt Q62668); experiment: UT-A1-mediated urea flux across stably transfected MDCK cell layers; assay type: cell-based; conditions: 10 μM forskolin; 0.7 mM phloretin
T1 construct: expressed in transfected cells
T1 sequence (Q62668 1-929): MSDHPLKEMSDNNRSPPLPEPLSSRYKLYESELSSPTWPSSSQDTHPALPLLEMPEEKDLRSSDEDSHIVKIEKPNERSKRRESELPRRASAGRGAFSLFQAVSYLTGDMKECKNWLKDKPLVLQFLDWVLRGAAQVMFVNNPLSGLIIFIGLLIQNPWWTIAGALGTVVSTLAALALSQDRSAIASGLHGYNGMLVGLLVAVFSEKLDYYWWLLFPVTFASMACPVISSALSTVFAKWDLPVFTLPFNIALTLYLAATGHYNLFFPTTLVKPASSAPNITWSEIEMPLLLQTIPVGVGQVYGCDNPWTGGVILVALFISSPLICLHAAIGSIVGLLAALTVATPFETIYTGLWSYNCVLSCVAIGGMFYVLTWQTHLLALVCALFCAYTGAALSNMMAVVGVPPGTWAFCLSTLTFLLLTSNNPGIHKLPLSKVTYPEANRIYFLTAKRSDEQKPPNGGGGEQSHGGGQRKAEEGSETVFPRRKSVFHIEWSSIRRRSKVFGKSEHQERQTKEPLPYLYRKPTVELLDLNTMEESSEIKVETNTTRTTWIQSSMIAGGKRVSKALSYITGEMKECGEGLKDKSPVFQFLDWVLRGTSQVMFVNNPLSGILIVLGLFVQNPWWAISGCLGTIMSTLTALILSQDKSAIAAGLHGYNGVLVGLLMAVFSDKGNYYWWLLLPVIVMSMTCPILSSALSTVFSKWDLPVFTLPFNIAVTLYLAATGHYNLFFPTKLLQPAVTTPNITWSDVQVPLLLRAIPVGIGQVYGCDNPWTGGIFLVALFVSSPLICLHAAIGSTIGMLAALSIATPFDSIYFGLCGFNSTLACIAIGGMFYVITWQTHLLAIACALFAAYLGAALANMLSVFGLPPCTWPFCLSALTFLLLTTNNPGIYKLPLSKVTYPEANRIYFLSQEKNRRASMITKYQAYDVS
Experimental: Concentration-inhibition studies were performed to study the effect of the active mouse UT-B inhibitors on urea transport by UT-A. The amino acid sequences of UT-B and UT-A urea transporter isoforms share significant similarity. The cells used in these studies were MDCK cells that expressed rat UT-A1. MDCK-UT-A1-expressing cells were grown on collagen-coated porous filters until they were electrically tight, at which point 15 mM urea was introduced into buffer bathing the basolateral cell surface. […]
UT-A1-facilitated urea flux in the basolateral-to-apical direction across unstimulated and forskolin-stimulated MDCK-UT-A1 cell layers was measured in response to a 15-mM urea gradient. […] Five μL samples of apical fluid were collected at specified times during incubation at 37° C., and urea concentration was determined using a commercial kit based on chromogenic urea complexation at 520-nm wavelength (Quantichrom™ Urea Assay Kit, BioAssay Systems, Hayward, Calif.). […] Aforsk, and Aphlor were averaged absorbance values (at 520 nm) for cultures treated with forskolin and forskolin+phloretin, respectively, and Atest were values from cultures treated with forskolin+ test compound.

UT-B = molecular target: T2, UT-B (Homo sapiens, UniProt Q13336); experiment: RBC lysis assay, human RBCs loaded with acetamide; assay type: cell-based; conditions: 0.7 mM phloretin; control approximately 1.6 M
T2 construct: the indicator cells are red blood cells that endogenously express the UT-B urea transporter; endogenous in cells; host or cells: human red blood cells (whole venous blood, single donor)
T2 sequence (Q13336 1-389): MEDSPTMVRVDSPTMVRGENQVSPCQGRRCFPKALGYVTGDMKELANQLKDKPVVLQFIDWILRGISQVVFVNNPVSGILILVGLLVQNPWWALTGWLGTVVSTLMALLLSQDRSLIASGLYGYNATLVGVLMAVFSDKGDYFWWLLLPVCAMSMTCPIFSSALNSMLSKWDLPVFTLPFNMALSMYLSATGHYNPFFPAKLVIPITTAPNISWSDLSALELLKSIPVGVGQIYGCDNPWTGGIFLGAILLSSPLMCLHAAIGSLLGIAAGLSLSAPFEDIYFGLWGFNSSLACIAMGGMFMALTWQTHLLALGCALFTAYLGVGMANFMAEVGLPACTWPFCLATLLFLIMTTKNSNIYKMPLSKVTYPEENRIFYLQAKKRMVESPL

Structure (SMILES): O=C(CCc1ccc(O)cc1)c1c(O)cc(O)cc1O [phloretin, reference compound]
- concentration exhibiting activity as UT inhibitor (urea transporter (UT)): > 0.5 mM
- effect on water transport (RBCs from wild-type mice): little effect
- change in Pf (RBCs from wild-type mice; 0.7 mM): small but significant reduction
- effect on UT-A1-facilitated urea transport (rat UT-A1): inhibited
- acetamide concentration at fifty percent lysis (UT-B): approximately 1.1 M
